Several values for one entry are separate records, joined by “and”; a condition that tells them apart may be missing. Identical values can stand only once.
Experiments:
MCF-7 cells = test: Anti-proliferative assay (MTS/PMS), MCF-7; type: cell-based; details: 72 h
Protocol: (§1) MCF-7 and SKBr3 cells were maintained in a 1:1 mixture of Advanced DMEM/F12 (Gibco) supplemented with nonessential amino acids, L-glutamine (2 mM), streptomycin ([…]), penicillin (100 units/mL), and 10% FBS. Cells were grown to confluence in a humidified atmosphere (37° C., 5% CO2), seeded (2000/well, 100 μL) in 96-well plates, and allowed to attach overnight. Compound or GDA at varying concentrations in DMSO (1% DMSO final concentration) was added, and cells were returned to the incubator for 72 h. At 72 h, the number of viable cells was determined using an MTS/PMS cell proliferation kit (Promega) per the manufacturer's instructions. Cells incubated in 1% DMSO were used as 100% proliferation, and values were adjusted accordingly. IC50 values were calculated from separate experiments performed in triplicate using GraphPad Prism.

SKBr3 cells = test: Anti-proliferative assay (MTS/PMS), SKBr3; type: cell-based; details: 72 h
Protocol: as §1

[1] = system: alkaline phosphatase in Ishikawa cells; test: Stimulation of alkaline phosphatase in Ishikawa cells (estrogenic potency); type: cell-based, human; details: for Ishikawa - RSA: relative stimulatory activity in comparison to E2 = 100%
Protocol: The methodology for determining estrogenic potency, estrogen receptor binding, and stimulation of an estrogen responsive gene in alkaline phosphatase in the Ishikawa cell was performed as described. (Stabile, et al. (2005) Cancer Res. 65:1459-1470; Perez-Soler (2007) Clin. Can. Res. 13(Suppl. 15):[…]; Nicholson, et al. (2000) British J. Cancer 82:501-513; Schiff, et al. (2004) Clin. Can. Res. 10 (supp.1):331s-336s).
(§2) The induction of AlkP in human endometrial adenocarcinoma cells (Ishikawa) grown in 96-well microtiter plates was performed as described. The cells were grown in Phenol red-free medium with estrogen-depleted (charcoal stripped) bovine serum in the presence or absence of varying amounts of the steroids across a dose range of at least 6 orders of magnitude. After 3 days, the cells were washed, frozen, thawed, and then incubated with 5 mM p-nitrophenyl phosphate, a chromogenic substrate for the AlkP enzyme, at pH 9.8. To ensure linear enzymatic analysis, the plates were monitored kinetically for the production of p-nitrophenol at 405 nm.
(§3) Each compound was analyzed in at least 3 separate experiments performed in duplicate. The Ki and RSA (RSA=ratio of 1/EC50 of the steroid analog to that of E2×100) were determined using the curve fitting program Prism. The results are shown below in FIGS. 1A-1C, 2, 3, and 4.

[2] = system: alkaline phosphatase in Ishikawa cells; test: Inhibition of E2-stimulated alkaline phosphatase in Ishikawa cells; type: cell-based, human; details: Ki determined in the presence of I nm E2
Protocol: as §2, §3

[3] = system: MCF-7 (ER-positive) breast cancer cell line; test: Cellular proliferation of MCF-7 (ER-positive) breast cancer cells, mitomycin series; type: cell-based; details: MCF-7 cells, FIG. 2, 4, 5
From the text: Another series of biological assays (Litzenburger, et al., Clin. Can. Res. (2009) 15:226 and Georghis, et al., Can. Chemothera. Pharmacol. (1992) 29:290.) are run to evaluate the effect of the mitomycin moiety on cellular proliferation of MCF-7 (ER-positive) and MDA-231 (ER-negative) breast cancer cell lines.

[4] = biological target: T1, LBD of human ERα (M250-V595) (Homo sapiens, UniProt P03372); test: Competitive binding of [3H]E2 to ERα-LBD (RBA); details: RBA against E2
T1 construct: the LBD of human ERα (M250-V595) is expressed; made in house; host or cells: Escherichia coli (lysates)
T1 sequence (P03372 250-595): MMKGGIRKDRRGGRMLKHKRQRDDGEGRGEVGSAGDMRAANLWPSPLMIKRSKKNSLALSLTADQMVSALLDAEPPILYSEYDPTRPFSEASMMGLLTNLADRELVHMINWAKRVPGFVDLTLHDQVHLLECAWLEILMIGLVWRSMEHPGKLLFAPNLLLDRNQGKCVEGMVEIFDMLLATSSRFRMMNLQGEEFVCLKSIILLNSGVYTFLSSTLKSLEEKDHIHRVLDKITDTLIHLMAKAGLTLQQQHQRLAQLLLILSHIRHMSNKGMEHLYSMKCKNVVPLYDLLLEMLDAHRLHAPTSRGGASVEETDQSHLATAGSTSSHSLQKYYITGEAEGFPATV
Protocol: (§4) A. Competitive Binding to Rat Cytosolic ER, Human LBD-ERα and Human LBD-ERβ
Biological evaluation used competitive binding assays with estradiol on the ERα-LBD. […] After incubation, the media was aspirated, the plates were washed 3 times, and the receptor-bound radioactivity absorbed to the plates was extracted with methanol and counted.
(§5) The ability of the described ERα ligands to bind to the ER was determined through their RBA against E2, in the competitive binding assay described above.

Human LBD-ERβ = biological target: T2, Human LBD-ERβ (Homo sapiens, UniProt Q92731); test: Competitive binding to ERβ (RBA); details: for RBA ERβ: RBA against E2
T2 construct: Human LBD-ERα and Human LBD-ERβ
T2 sequence (Q92731 264-498 limits assumed): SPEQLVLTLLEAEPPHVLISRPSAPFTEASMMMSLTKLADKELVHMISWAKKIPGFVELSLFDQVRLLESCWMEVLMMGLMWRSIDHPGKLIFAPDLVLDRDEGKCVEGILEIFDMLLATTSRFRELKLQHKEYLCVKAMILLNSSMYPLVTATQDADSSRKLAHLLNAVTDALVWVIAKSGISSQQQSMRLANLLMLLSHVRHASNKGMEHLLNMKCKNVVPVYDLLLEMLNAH
Protocol: as §4
Biological evaluation used competitive binding assays with estradiol on the ERα-LBD. Binding affinities of the estradiol derivatives relative to E, were performed in incubations with the LBD of ERα. in lysates of Escherichia coli in which the LBD of human ERα (M250-V595) is expressed as described in Antonello, et al. (J. Med. Chem. (2006) 49:6642-6645), Morphy, et al. (J. Med. Chem. (2006), 49:4961-4970); Meunier (Accounts Chem. Res. (2007), and Ojima (Accounts Chem. Res. (2007). The assay was perfoiiued overnight in phosphate buffered saline +1 mM EDTA at RT. The competition for binding of [^3H]E2 to the LBD of the E2-derivatives in comparison to E2, relative binding affinity (RBA) was determined over a range of concentrations from 10^−12 to 10^−6M. After incubation, the media was aspirated, the plates were washed 3 times, and the receptor-bound radioactivity absorbed to the plates was extracted with methanol and counted.
as §5

## Geldanamycin-aminomethyl-triazolo-ethoxy Anti-Estrogen [Compound 3-13]
MCF-7 cells
  EC50: 1200 ± 90 nM
SKBr3 cells
  EC50: 710 ± 160 nM

## N-propargyl-N′-methyl-mitomycin C [EH-N9-006]
[1]
  Ishikawa - RSA: 0%
[2]
  Ki: 40 ± 4 nM

## Geldanamycin-aminoheptaethylene glycolyl-triazolo-methylaminoethoxy Anti-Estrogen [Compound 3-15]
MCF-7 cells
  EC50: 102 ± 5 nM

## Geldanamycin aminopentanamidocarbonylphenyl-methyl difluorocyclooctenyltriazolo-ethoxy Anti-Estrogen [Compound 3-17]
MCF-7 cells
  EC50: 17000 nM

## CO[C@@]12[C@H](COC(N)=O)C3=C(C(=O)C(C)=C(N)C3=O)N1C[C@@H]1N[C@@H]12 [mitomycin C]
[3]
  anti-proliferative response: more potent in the MCF-7 vs. the MDA-231 cell lines

## C[C@]12C[C@H](c3ccc(OCCN=[N+]=[N-])cc3)[C@@H]3c4ccc(O)cc4CC[C@H]3[C@@H]1CC[C@@H]2O [Compound 2-13, (8S,9R,11S,13S,14S,17S)-11-(4-(2-azidoethoxy)phenyl)-7,8,9,11,12,13,14,15,16,17-decahydro-13-methyl-6H-cyclopenta[a]phenanthrene-3,17-diol]
[4]
  RBA ERα: 39.3±9.0 and 39.3
[4]; listed as drawing 40
  RBA ERα: 39.3 ± 9.0
Human LBD-ERβ; ERα vs ERβ
  ER-subtype selectivity: does not differentiate between ERα and ERβ
Human LBD-ERβ
  RBA ERβ: 33.7±1.77
Human LBD-ERβ; listed as drawing 40
  RBA ERβ: 33.7 ± 1.77
Human LBD-ERβ; ratio of RBA ERβ to RBA ERα
  β/α: 0.86

## C[C@]12C[C@H](c3ccc(OCCOCCOCCN=[N+]=[N-])cc3)[C@@H]3c4ccc(O)cc4CC[C@H]3[C@@H]1CC[C@@H]2O [EH-N7-092, 11β-[4-(ω-azido-triethyleneglycoloxy)]-phenyl-estradiol]
[1]
  Ishikawa - RSA: 0%

## Estradiol [Compound E2, reference compound]
[1]; Ishikawa cells, read-out: EC50 of E2, alkaline phosphatase induction
  EC50: ~0.2 nM
